Patent US20180243190A1, “ACTIVATORS OF NRF2-DEPENDENT PHOTOPROTECTION AND RELATED USES THEREOF” (THE ARIZONA BOARD OF REGENTS ON BEHALF OF THE UNIVERSITY OF …, priority 2015, published 2018)

How the values were obtained:
cutaneous NRF2 = assay: Cutaneous NRF2 activation after systemic administration (immunoblot, IHC, RT-PCR of skin); format: in vivo, SKH-1 mice
Excerpt: To explore the potential systemic photoprotective activity of bixin in a murine skin sunburn model, the feasibility of upregulating cutaneous NRF2 activity by systemic administration was first examined. It has been reported earlier that efficient cutaneous accumulation of dietary carotenoids requires prolonged nutritional supplementation over weeks and that pharmacokinetic parameters of cutaneous delivery of dietary carotinoids differ between humans and mice. Therefore, in order to circumvent the more complex pharmacokinetics associated with dietary supplementation, an intraperitoneal (i.p.) route for bixin systemic administration followed by examination of cutaneous NRF2 status was chosen. After i.p. injection of bixin (200 mg/kg) performed in Nrf2^+/+ and Nrf2^−/− mice, plasma was collected at 0, 1, 2, 4, 8, 16, 24, 48 and 72 h after injection followed by HPLC-photodiode array detection (FIG. 4A-C). […] Next, efficacy of various bixin treatment regimens (differing with regard to total dose and time after injection) for maximum activation of the NRF2 pathway in murine skin was determined (FIG. 4D).
Next, the feasibility of bixin-induced cutaneous protection was studied in a solar UV photodamage model. Nrf2^+/+ and Nrf2^−/− mice were i.p. injected with either corn oil (carrier control) or bixin (200 mg/kg) 48 h before solar UV exposure (240 mJ/cm^2 UVB; 4.4 J/cm^2 UVA). 24 h after UV exposure back skin tissue was then collected followed by immunohistochemical (IHC) analysis. […] Moreover, UV exposure alone activated the NRF2 response in murine skin, effects not detectable in Nrf2^−/− mice (FIG. 5).
Total RNA was extracted from HaCaT cells and mouse skin tissues using TRIzol (Invitrogen). Equal amounts of mRNA were used to generate cDNA using the M-MLV Reverse Transcriptase synthesis kit according to the manufacturer's instructions (Promega). RT-PCR and primer sequences of NRF2, KEAP1, GCLM, AKR1C1 and GAPDH were described previously to evaluate mRNA expression using the LightCycler 480 system (Roche). Quantification of cDNA amount for mouse Nrf2, Keap1, Gclm, and Akr1c1 in each skin tissue sample was performed using the KAPA SYBR FAST qPCR Kit (Kapa Biosystems).
Nrf2^+/+ and Nrf2^−/− SKH-I mice were obtained by breeding Nrf2 heterozygous mice generated by back-crossing Nrf2^−/− C57BL/6 mice onto the SKH-1 hairless mouse genetic background for at least six generations (JAX® Mice, The Jackson Laboratory). All animals received water and food ad libitum and were handled according to the Guide for the Care and Use of Laboratory Animals; the protocols were approved by the University of Arizona Institutional Animal Care and Use Committee. Eight-week-old Nrf2^+/+ and Nrf2^−/− mice were randomly allocated into four groups (n=6): (i) control (corn oil); (ii) bixin (200 mg/kg, dissolved in corn oil); (iii) UV; (iv) bixin+UV. Bixin was administered through intraperitoneal (i.p.) injection 48 h before UV exposure.
24 h after UV exposure, the mice were euthanized and back skin was collected and divided into two parts: one part was frozen in liquid nitrogen for total RNA extraction and protein analysis; the other part was fixed in 10% buffered formalin and embedded in paraffin for histological and immunohistochemical analyses. Tissue sections (4 μm) were baked and deparaffinized. Hematoxylin and eosin (H&E) staining was performed for pathological examination. […]

KEAP1-C151S = biological target: T1, KEAP1-C151S (Homo sapiens, UniProt Q14145, C151S); format: cell-based; conditions: SF 5 μM, As 5 μM, bixin 40 μM; 16 h
T1 construct: expressed in transfected cells; host or cells: HaCaT human keratinocytes
Excerpt: (§1) Since it has been shown previously that NRF2 activation by canonical inducers (including SF and tBHQ) depends on C (Cys)-151, a critical cysteine residue in KEAP1, the mechanistic involvement of KEAP1-C151 bixin-based NRF2 activation was examined. HaCaT cells were cotransfected with expression vectors for either KEAP1 wild type (KEAP1-WT) or a mutant KEAP1 (KEAP1-C151S; Cys-151 mutated to serine) along with ARE-firefly luciferase and Renilla luciferase reporters to assess NRF2 transcriptional activity (FIG. 3G). After exposure to SF (5 μM), As (sodium arsenite; 5 μM), or bixin (40 μM; all 16 h), NRF2 transcriptional activity was enhanced by all treatments in KEAP1-WT cells, whereas NRF2 activation by SF or bixin was abolished in KEAP1-C151S cells.
(§2) Transfection of cDNA was performed using Lipofectamine 3000 (Invitrogen) according to the manufacturer's instructions. Activation of NRF2 transcriptional activity was performed as previously published. Briefly, HaCaT cells were cotransfected with expression vectors for either KEAP1 wild type (KEAP1-WT) or KEAP1 with a mutation that generates a protein that contains a serine residue instead of a cysteine (KEAP1-C151S), along with NQO1-ARE firefly luciferase and Renilla luciferase reporters. At 24 h post-transfection, cells were left untreated or treated with SF (5 μM), As (5 μM), or bixin (40 μM) for 16 h. The cells were then lysed for analysis of the reporter gene activity using the Promega dual-luciferase reporter gene assay system.

[1] = biological target: T2, KEAP1 wild type (KEAP1-WT) (Homo sapiens, UniProt Q14145); format: cell-based; conditions: SF 5 μM, As 5 μM, bixin 40 μM; 16 h
T2 construct: expressed in transfected cells; host or cells: HaCaT human keratinocytes
Excerpt: as §1, §2

T2 sequence (Q14145 whole entry, species assumed): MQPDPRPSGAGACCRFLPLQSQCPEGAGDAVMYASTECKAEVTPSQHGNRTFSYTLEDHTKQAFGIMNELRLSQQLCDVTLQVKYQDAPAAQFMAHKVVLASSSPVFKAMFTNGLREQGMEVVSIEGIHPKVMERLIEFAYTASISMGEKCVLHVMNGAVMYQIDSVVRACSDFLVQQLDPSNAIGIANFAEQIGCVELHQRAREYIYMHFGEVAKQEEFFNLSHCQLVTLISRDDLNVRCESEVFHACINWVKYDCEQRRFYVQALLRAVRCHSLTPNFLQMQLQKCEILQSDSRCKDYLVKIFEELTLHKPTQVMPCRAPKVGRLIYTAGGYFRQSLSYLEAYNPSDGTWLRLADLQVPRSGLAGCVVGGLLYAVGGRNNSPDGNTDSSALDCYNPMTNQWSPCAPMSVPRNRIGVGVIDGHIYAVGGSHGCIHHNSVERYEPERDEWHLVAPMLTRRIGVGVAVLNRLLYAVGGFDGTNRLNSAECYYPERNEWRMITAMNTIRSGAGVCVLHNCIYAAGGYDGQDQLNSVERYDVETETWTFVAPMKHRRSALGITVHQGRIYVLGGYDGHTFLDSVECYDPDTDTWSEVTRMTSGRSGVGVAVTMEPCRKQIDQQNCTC
T1 sequence (Q14145 whole entry C151S): as the sequence (Q14145 whole entry, species assumed) above, with C151S counted along it

COC(=O)/C=C/C(C)=C\C=C\C(C)=C\C=C\C=C(C)\C=C\C=C(C)\C=C\C(=O)O [bixin]
skin mRNA levels of Nrf2 (cutaneous NRF2; 200 mg/kg i.p.): did not increase
skin protein or mRNA levels of Keap1 (cutaneous NRF2; 200 mg/kg i.p.): no effects
upregulation of cutaneous protein levels of NRF2 and its targets (GCLM and AKR1C1), comparison of regimens (cutaneous NRF2; 200 mg/kg, 72 h after injection, Nrf2+/+ mice): most effective
cutaneous NRF2 pathway (NRF2, GCLM, AKR1C1 protein and mRNA) (cutaneous NRF2; Nrf2+/+ mice, 200 mg/kg i.p.): dramatically induced
activation of NRF2 pathway related activity within skin cells (cutaneous NRF2; dosage amounts less than 10 mg/kg): insufficient
NRF2 activation in KEAP1-C151S cells (KEAP1-C151S): abolished
NRF2 transcriptional activity in KEAP1-WT cells [1]: enhanced
